Test results as given in US20200031771A1, “SUBSTITUTED PHENYLPROPIONIC ACID ENANTIOMER AND MANUFACTURING METHOD, COMPOSITION, AND APPLICATION OF SAME” (SHENZHEN CHIPSCREEN BIOSCIENCES CO., LTD., priority 2016, published 2020).

Columns and labels:
[1] = target: T1, RXR/PPAR-6 heterodimer (PPARδ) (Homo sapiens, UniProt Q03181); assay: PPARδ in vitro reporter gene assay (pGL3-PPRE reporter, PPARδ and RXR plasmids) in L-02 cells; assay type: cell-based; conditions: 24 h after compound addition, luciferase corrected by GFP, read-out: EC50 (semi-activating activity) activating PPAR-6
T1 construct: expressed in transfected cells; host or cells: L-02
T1 sequence (Q03181 1-441): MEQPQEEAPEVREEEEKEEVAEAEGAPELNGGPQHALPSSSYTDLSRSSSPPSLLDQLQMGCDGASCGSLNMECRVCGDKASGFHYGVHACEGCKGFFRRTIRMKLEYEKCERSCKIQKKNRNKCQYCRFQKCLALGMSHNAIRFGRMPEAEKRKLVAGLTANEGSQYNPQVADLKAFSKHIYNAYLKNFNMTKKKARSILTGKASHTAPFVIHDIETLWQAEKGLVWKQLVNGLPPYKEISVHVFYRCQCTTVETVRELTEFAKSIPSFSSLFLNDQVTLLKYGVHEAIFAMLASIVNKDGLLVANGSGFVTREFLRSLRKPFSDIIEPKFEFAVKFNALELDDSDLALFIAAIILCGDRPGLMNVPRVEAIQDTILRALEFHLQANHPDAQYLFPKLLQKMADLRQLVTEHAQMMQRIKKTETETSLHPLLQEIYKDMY
T1 sequence (P19793 1-462 partner): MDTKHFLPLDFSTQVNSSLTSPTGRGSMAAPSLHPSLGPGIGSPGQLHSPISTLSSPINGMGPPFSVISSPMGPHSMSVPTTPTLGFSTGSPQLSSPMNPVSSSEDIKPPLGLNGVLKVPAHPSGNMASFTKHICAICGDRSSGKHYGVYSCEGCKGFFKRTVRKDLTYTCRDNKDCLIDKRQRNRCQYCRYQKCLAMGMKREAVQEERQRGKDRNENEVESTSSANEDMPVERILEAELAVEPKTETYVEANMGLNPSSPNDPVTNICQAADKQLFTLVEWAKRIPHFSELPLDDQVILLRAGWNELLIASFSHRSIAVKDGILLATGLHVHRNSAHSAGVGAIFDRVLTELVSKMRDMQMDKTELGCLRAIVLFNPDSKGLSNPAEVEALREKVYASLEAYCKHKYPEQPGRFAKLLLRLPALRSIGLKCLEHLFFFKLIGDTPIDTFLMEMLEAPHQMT
Experimental: The PPARδ reporter gene detection system comprises a pGL3-PPRE fluorescent reporter gene plasmid (PPRE enhancer element was inserted into the upstream of the promoter), PPARδ expression plasmid, RXR expression plasmid, and a green fluorescent protein GFP expression plasmid.
(§1) The above plasmids were co-transfected (Fugene 6.0 transfection reagent) into human hepatoma cell line L-02. 48 hours after transfection, different concentrations of test compounds were added. 24 hours after administration, the cells were treated with a luciferase assay kit (Promega E1910) and the fluorescence intensity of GFP (wavelength 485-527 nm) and luciferase substrate (wavelength 562 nm) were detected using a fluorescence detector (Fluoroskan Ascent FL), respectively. The GFP signal is used as an internal reference to correct the detected luciferase substrate signal, and a relative reporter activation intensity was obtained by comparing the above corrected signal to the blank control (without treatment of the compounds). The semi-activating activity (EC50) of the test compound was calculated from concentration gradient data.

db/db mice [2] = assay: Fasting blood glucose in db/db mice during 14 days of oral administration; assay type: in vivo, mouse; conditions: oral once a day, enantiomers 20 mg/kg, rosiglitazone 5 mg/kg, 6 h fasting; for Fasting blood glucose, average value, Day 0: Day 0, n = 10; for Fasting blood glucose, average value, Day 3: Day 3, n = 10; for Fasting blood glucose, average value, Day 6: Day 6, n = 10; for Fasting blood glucose, average value, Day 9: Day 9, n = 10; for Fasting blood glucose, average value, Day 12: Day 12, n = 10; for Fasting blood glucose, average value, Day 14: Day 14, n = 10
Experimental: (§2) The route of administration was oral, the dose was 20 mg/kg in the administration group and 5 mg/kg in the control group, the frequency of administration was once a day, and the administration period was 14 days. […] On days 0, 3, 6, 9, 12, and 14, after fasting for 6 hours after administration, blood was collected from the tail vein and fasting blood glucose levels was measured by a blood glucose meter and recorded.

human PPARα = target: T2, human PPARα (Homo sapiens, UniProt Q07869); assay: PPARα in vitro reporter gene assay (PPRE-luciferase) in L-02 cells; assay type: cell-based; conditions: 24 h after compound addition, luciferase corrected by GFP, read-out: EC50 (semi-activating activity) activating PPARα
T2 construct: expressed in transfected cells; host or cells: L-02
T2 sequence (Q07869 1-468): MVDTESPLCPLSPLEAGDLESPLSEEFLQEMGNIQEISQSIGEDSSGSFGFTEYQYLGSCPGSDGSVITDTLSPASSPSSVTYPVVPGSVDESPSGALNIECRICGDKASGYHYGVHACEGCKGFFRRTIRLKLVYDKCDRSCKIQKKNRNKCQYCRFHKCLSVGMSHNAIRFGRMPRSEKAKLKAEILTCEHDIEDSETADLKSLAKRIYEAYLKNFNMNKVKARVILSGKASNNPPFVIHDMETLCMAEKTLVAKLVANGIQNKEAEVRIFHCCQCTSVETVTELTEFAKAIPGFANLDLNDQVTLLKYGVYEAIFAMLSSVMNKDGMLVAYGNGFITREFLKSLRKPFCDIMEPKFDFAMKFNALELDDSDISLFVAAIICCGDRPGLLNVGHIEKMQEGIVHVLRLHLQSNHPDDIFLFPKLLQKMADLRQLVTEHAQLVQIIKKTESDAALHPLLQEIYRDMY
Experimental: The PPARα reporter gene detection system comprises a pCDNA3.1 luciferase expression plasmid (PPRE enhancer element was inserted into the upstream of the promoter), a green fluorescent protein GFP expression plasmid, and a human PPARα expression plasmid.
as §1, with “Ascent FL)” for “Ascent FL),”, “signal was” for “signal is”

db/db mice [3] = assay: Glucose tolerance test (OTGG) in db/db mice after 14 days of administration; assay type: in vivo, mouse; conditions: n = 10; for Blood glucose in glucose tolerance test, average value, 15 min: 15 min after oral 2 g/kg glucose; for Blood glucose in glucose tolerance test, average value, 30 min: 30 min after oral 2 g/kg glucose; for Blood glucose in glucose tolerance test, average value, 60 min: 60 min after oral 2 g/kg glucose; for Blood glucose in glucose tolerance test, average value, 120 min: 120 min after oral 2 g/kg glucose; for Glucose tolerance test AUC, average value: oral 2 g/kg glucose, 0-120 min; for Blood glucose in glucose tolerance test, average value, 0 min: overnight fast, before oral 2 g/kg glucose (0 min)
Experimental: as §2
After 14 days of administration, the animals were fasted overnight (<10 hours), and orally given 2 g/kg of glucose on the next day. Blood was collected from the tail vein at the 0 (pre-administration or fasting blood glucose level), 15, 30, 60 and 120 minutes after administration, respectively, and blood glucose levels were then measured by blood glucose meter and recorded.

RXR/PPARγ heterodimer = target: T3, RXR/PPARγ heterodimer (Homo sapiens, UniProt P37231); assay: PPARγ in vitro reporter gene assay (pACOX reporter, PPARγ and RXR plasmids) in L-02 cells; assay type: cell-based; conditions: 24 h after compound addition, luciferase corrected by GFP, read-out: EC50 (semi-activating activity) activating PPARγ
T3 construct: expressed in transfected cells; host or cells: L-02
T3 sequence (P37231 1-505): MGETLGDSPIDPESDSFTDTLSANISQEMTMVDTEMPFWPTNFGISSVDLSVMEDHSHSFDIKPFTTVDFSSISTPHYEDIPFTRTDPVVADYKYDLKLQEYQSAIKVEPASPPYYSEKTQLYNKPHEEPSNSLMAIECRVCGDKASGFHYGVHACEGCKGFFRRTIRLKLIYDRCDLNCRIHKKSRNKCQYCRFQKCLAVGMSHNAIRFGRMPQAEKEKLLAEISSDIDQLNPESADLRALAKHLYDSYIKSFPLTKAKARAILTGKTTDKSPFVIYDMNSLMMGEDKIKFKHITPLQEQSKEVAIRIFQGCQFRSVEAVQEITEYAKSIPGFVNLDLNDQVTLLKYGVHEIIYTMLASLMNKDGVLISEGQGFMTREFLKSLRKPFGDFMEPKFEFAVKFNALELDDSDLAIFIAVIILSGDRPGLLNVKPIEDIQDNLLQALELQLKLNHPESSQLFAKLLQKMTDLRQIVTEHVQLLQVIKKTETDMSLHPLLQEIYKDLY
T3 sequence (P19793 1-462 partner): T1 sequence (P19793 1-462 partner)
Experimental: The PPARγ reporter gene detection system comprises a pACOX fluorescent reporter gene plasmid (the promoter comprises PPRE sequence), PPARγ expression plasmid, RXR expression plasmid, and a green fluorescent protein GFP expression plasmid.
as §1, with “signal was” for “signal is”

EC50 [1] [nM] | EC50 (human PPARα) [nM] | EC50 (RXR/PPARγ heterodimer) [nM] | Compound | Fasting blood glucose, average value, Day 0 (db/db mice [2]) | Fasting blood glucose, average value, Day 3 (db/db mice [2]) | Fasting blood glucose, average value, Day 6 (db/db mice [2]) | Fasting blood glucose, average value, Day 9 (db/db mice [2]) | Fasting blood glucose, average value, Day 12 (db/db mice [2]) | Fasting blood glucose, average value, Day 14 (db/db mice [2]) | Blood glucose in glucose tolerance test, average value, 15 min (db/db mice [3]) | Blood glucose in glucose tolerance test, average value, 30 min (db/db mice [3]) | Blood glucose in glucose tolerance test, average value, 60 min (db/db mice [3]) | Blood glucose in glucose tolerance test, average value, 120 min (db/db mice [3]) | Glucose tolerance test AUC, average value (db/db mice [3]) | Blood glucose in glucose tolerance test, average value, 0 min (db/db mice [3])
> 10000 | 5380 | 2710 | O=C(c1ccc(F)cc1)c1ccccc1NC(Cc1ccc(OCCn2c3ccccc3c3ccccc32)cc1)C(=O)O (single isomer, unassigned; (+)) [Enantiomer 2, (+)-2-[(2-(4-fluorobenzoyl)phenyl)amino]-3-[(4-(2-carbazole-ethoxy)phenyl)]propionic acid] | 18.86 | 23.99 | 20.03 | 26.01 | 26.44 | 17.18 | 31.87 | 33.3 | 30.94 | 25.75 | 59.16 | 17.18
1930 | 1140 | 76 | O=C(c1ccc(F)cc1)c1ccccc1NC(Cc1ccc(OCCn2c3ccccc3c3ccccc32)cc1)C(=O)O (single isomer, unassigned; (-)) [Enantiomer 1, (−)-2-[(2-(4-fluorobenzoyl)phenyl)amino]-3-[(4-(2-carbazole-ethoxy)phenyl)]propionic acid] | 18.43 | 18.2 | 14.7 | 18.14 | 16.18 | 10.98 | 28.02 | 32.26 | 26.6 | 14.69 | 47.77 | 10.98
 |  |  | CN(CCOc1ccc(CC2SC(=O)NC2=O)cc1)c1ccccn1 (centres unmarked) [rosiglitazone, reference compound] | 19.09 | 13.58 | 13.8 | 15.05 | 14.44 | 11.29 | 28.11 | 31.22 | 25.08 | 13.61 |  | 11.29
